This note sets out measurements from ChEMBL document CHEMBL5241108 (J Med Chem, 2021).

For orientation: chromatographic logD means lipophilicity estimated from chromatographic retention. Low readings indicate a more hydrophilic compound, high ones a more lipophilic compound. The solubility is the concentration that dissolves in the medium under given conditions. A low value points to a poorly soluble substance. A word on the pKa: it is the pH at which an ionisable group is half protonated.

The structures appear in SMILES notation. Converted amounts (≈) assume the structure as drawn.

Data set [1] is described as follows: Lipophilicity, logD of compound at pH 7.5 by reversed-phase HPLC analysis. In kind it is physicochemical. The following applies: buffer.
The nature of data set [2]: Metabolic stability in Han Wistar rat liver microsomes assessed as intrinsic clearance at 1 uM in presence of NADP and measured upto 60 mins by LC-MS/MS analysis. In kind it is ADME, Microsome. As to conditions: read-out: CLH (converted). Background: Liver microsomes are a subcellular fraction often used to study metabolism.
A short description of data set [3]: Metabolic stability in Han Wistar rat hepatocytes assessed as intrinsic clearance at 1 uM in presence of NADP and measured upto 90 mins by LC-MS/MS analysis. In kind it is ADME, cell-based, Hepatocyte. The following applies: read-out: CLH (converted).
Data set [4] is described as follows: Metabolic stability in Han Wistar rat liver microsomes assessed as maximum bioavailability at 1 uM in presence of NADP and measured upto 60 mins by LC-MS/MS analysis. In kind it is ADME, Microsome. The following applies: read-out: Fmax.
The nature of data set [5]: Metabolic stability in Han Wistar rat hepatocytes assessed as maximum bioavailability at 1 uM in presence of NADP and measured upto 90 mins by LC-MS/MS analysis. In kind it is ADME, Hepatocyte. The following applies: read-out: Fmax.
The nature of data set [6]: Aqueous solubility of compound at pH 6.5 and measured after 24 hrs by HPLC-MS/MS analysis. The following applies: buffer. In kind it is physicochemical.
Data set [7] can be described thus: Acid dissociation constant, pKa of the compound. In kind it is physicochemical.
Data set [8] in a line: Stability of compound at pH 10 at 5 uM and measured upto 24 hrs by HPLC-UV analysis. In kind it is physicochemical. As to conditions: buffer, pH 10, 24 h.
The nature of data set [9]: Stability of compound at pH 7 at 5 uM and measured upto 24 hrs by HPLC-UV analysis. In kind it is physicochemical. The following applies: buffer, pH 7, 24 h.
A short description of data set [10]: Stability of compound at pH 1 at 5 uM and measured upto 24 hrs by HPLC-UV analysis. In kind it is physicochemical. The following applies: buffer, pH 1, 24 h.
The nature of data set [11]: Metabolic stability in human liver microsomes assessed as maximum bioavailability at 1 uM in presence of NADP and measured upto 60 mins by LC-MS/MS analysis. The following applies: read-out: Fmax. In kind it is ADME, Microsome.

In data set [1], `CC[C@@H](Nc1c(C#N)c(-c2ccc(-c3cccc(C)c3)cc2)nc2cnccc12)C(N)=O` returned a chromatographic logD of 3.
`CCOc1ccccc1-c1ccc(-c2nc3cnccc3c(N)c2C#N)cc1` showed a chromatographic logD in [1] of 3.
Same read-out and setting: the figure for `CC[C@@H](Nc1c(C#N)c(-c2ccc(-c3ccccc3N(C)C)cc2)nc2cnccc12)C(N)=O` is 3.2; for `CCOc1ccccc1-c1ccc(-c2nc3cnccc3c(N[C@H](CC)C(=O)N(C)C)c2C#N)cc1` it is 3.7; for `CCOc1ccccc1-c1ccc(-c2nc3cnccc3c(N[C@@H]3CCNC3=O)c2C#N)cc1` it is 2.7.
Molecule `CC[C@@H](Nc1c(C#N)c(-c2ccc(-c3ccccc3COC)cc2)nc2cnccc12)C(N)=O` gave a chromatographic logD in [1] of 2.6.
The same measure, in the same setting: the figure for `CC[C@@H](Nc1c(C#N)c(-c2ccc(-c3ccccc3NC)cc2)nc2cnccc12)C(N)=O` is 2.5.
On the same count and under the same terms, the figure for `CC[C@@H](Nc1c(C#N)c(-c2ccc(-c3cccc(Cl)c3OC)cc2)nc2cnccc12)C(N)=O` is 3.1; for `CCOc1ccccc1-c1ccc(-c2nc3cnccc3c(N[C@H](CC(C)C)C(N)=O)c2C#N)cc1` it is 3.4.
The same measure, in the same setting: under `CC[C@@H](Nc1c(C#N)c(-c2ccc(Br)cc2)nc2cnccc12)C(=O)O` stands 1.6; under `CC[C@@H](Nc1c(C#N)c(-c2ccc(-c3cccc(Cl)c3)cc2)nc2cnccc12)C(N)=O`, 3.1.
For the molecule `CC[C@@H](Nc1c(C#N)c(-c2ccc(-c3cnccc3C)cc2)nc2cnccc12)C(N)=O`, in [1], the chromatographic logD is 2.
On the same count and under the same terms, under `CC[C@@H](Nc1c(C#N)c(-c2ccc(-c3ccccc3C(F)(F)F)cc2)nc2cnccc12)C(N)=O` stands 3.1.
`CCOc1ccccc1-c1ccc(-c2nc3cnccc3c(N[C@H](CC)C(=O)O)c2C#N)cc1`: the chromatographic logD in data set [1] was 2.1. The CLint scaled at 1 µM in data set [2] and in data set [3] was 8.33 mL/min/kg in each case. For the same molecule, the Fh at 1 h, 1 µM in data set [4] amounted to 87%. Further, in data set [5], the Fh at 1.5 h, 1 µM worked out at 87%. In [6], this molecule had a solubility at 24 h of 112 µg/mL (≈ 248 µM).
For the molecule `CC[C@@H](Nc1c(C#N)c(-c2ccc(-c3ccccc3Cl)cc2)nc2cnccc12)C(N)=O`, the chromatographic logD in [1] is 2.9.
Still for that read-out and setting: under `CC[C@@H](Nc1c(C#N)c(-c2ccc(-c3ccncc3C)cc2)nc2cnccc12)C(N)=O` stands 2.
The same measure, in the same setting: the figure for `CC[C@@H](Nc1c(C#N)c(-c2ccc(-c3cccnc3C)cc2)nc2cnccc12)C(N)=O` is 1.9.
The same measure, in the same setting: the figure for `CC[C@@H](Nc1c(C#N)c(-c2ccc(-c3cccc(Cl)c3F)cc2)nc2cnccc12)C(=O)O` is 2.2; for `CC[C@@H](Nc1c(C#N)c(-c2ccc(-c3ncccc3C)cc2)nc2cnccc12)C(N)=O` it is 2; for `CC(C)(Nc1c(C#N)c(-c2ccc(Br)cc2)nc2cnccc12)C(N)=O` it is 2.1.
In [1], `CC[C@@H](Nc1c(C#N)c(-c2ccc(-c3ccccc3C(C)C)cc2)nc2cnccc12)C(N)=O` yielded a chromatographic logD of 3.5.
Same read-out and setting: the figure for `CC[C@@H](Nc1c(C#N)c(-c2ccc(-c3ccccc3CO)cc2)nc2cnccc12)C(N)=O` is 2.1; for `CCOc1ccccc1-c1ccc(-c2nc3cnccc3c(C[C@H](C)C(N)=O)c2C#N)cc1` it is 3.
Still for that read-out and setting: the figure for `CC[C@@H](Nc1c(C#N)c(-c2ccc(-c3cccc(CO)c3)cc2)nc2cnccc12)C(N)=O` is 2; for `CCOc1ccccc1-c1ccc(-c2nc3cnccc3c(N[C@H](CC)C(=O)NS(C)(=O)=O)c2C#N)cc1` it is 2.2.
Same read-out and setting: under `CC[C@@H](Nc1c(C#N)c(-c2ccc(-c3ccccc3C)cc2)nc2cnccc12)C(N)=O` stands 3; under `CCOc1ccccc1-c1ccc(-c2nc3cnccc3c(N[C@H](CC)C(=O)NCC(F)F)c2C#N)cc1`, 3.6; under `CCOc1ccccc1-c1ccc(-c2nc3cnccc3cc2C#N)cc1`, 3.8.
In turn, `CCOc1ccccc1-c1ccc(-c2nc3cnccc3c(N[C@H](CC)C(=O)NS(=O)(=O)C3CC3)c2C#N)cc1` returned a chromatographic logD in data set [1] of 2.3.
For `CC[C@@H](Nc1c(C#N)c(-c2ccc(-c3ccc(F)cc3)cc2)nc2cnccc12)C(N)=O`, the chromatographic logD in data set [1] turned out to be 2.7.
The same measure, in the same setting: under `CCOc1ccccc1-c1ccc(-c2nc3cnccc3c(NC(C(N)=O)C3CC3)c2C#N)cc1` (racemic) stands 3.
Same read-out and setting: the figure for `CCOc1ccccc1-c1ccc(-c2nc3cnccc3c(NC(COC)C(N)=O)c2C#N)cc1` (racemic) is 2.8.
`CCOc1ccccc1-c1ccc(-c2nc3cnccc3c(NC(C)C(=O)O)c2C#N)cc1` (racemic) displayed a chromatographic logD in data set [1] of 2.1. In addition, the pKa in data set [7] came out at 3.26.
Molecule `CC(Nc1c(C#N)c(-c2ccc(Br)cc2)nc2cnccc12)C(N)=O` (racemic) had a chromatographic logD in [1] of 2.1.
`CCCCC(Nc1c(C#N)c(-c2ccc(-c3ccccc3OCC)cc2)nc2cnccc12)C(N)=O` (racemic) gave a chromatographic logD in [1] of 3.6.
Turning to `CCOc1ccccc1-c1ccc(-c2nc3cnccc3c(NC(CC)CNS(=O)(=O)C3CC3)c2C#N)cc1` (racemic), the chromatographic logD in data set [1] was 3.6.
Same read-out and setting: the figure for `CCOc1ccccc1-c1ccc(-c2nc(NC(C)C(=O)O)c3ccncc3n2)cc1` (racemic) is 2.1.
In the case of `CC[C@@H](Nc1c(C#N)c(-c2ccc(-c3cccc(C)c3F)cc2)nc2cnccc12)C(=O)O` [BAY-091], the chromatographic logD in data set [1] stood at 2.1. Further, the values for the CLint scaled at 1 µM in data set [2] and in data set [3] were 46.7 mL/min/kg and 38.3 mL/min/kg, respectively. Also, the Fh at 1 h, 1 µM amounted to 33% in data set [4] and 100% in data set [11]. Moreover, in data set [5], the Fh at 1.5 h, 1 µM turned out to be 44%. The same molecule yielded a solubility at 24 h in [6] of more than 1000 µg/mL. The Stability entry in data set [8], in data set [9] and in [10] was “Stable” in each case.
